Source: PubChem BioAssay AID228 (DTP/NCI, 2004)
Several values for one entry are separate records, joined by “and”; a condition that tells them apart may be missing. Equal values may be shown once. Records with an inconclusive call do not appear.

System: BDF1 mice, Friend leukemia sc, tumor weight T/C
Assay: NCI In Vivo Anticancer Drug Screen. Data for tumor model Friend Virus Leukemia (Solid) (subcutaneous) in B6D2F1 (BDF1) mice
Settings: endpoint: mean tumor weight, higher = larger tumour
Experimental: The antitumor activity of compounds was measured in mice bearing transplantable tumors. Survival or tumor size were measured and the results are expressed as the measurement made in the treated group (T) divided by the measurement made in the vehicle treated control group (C). The tumor model used in this assay is Friend Virus Leukemia (Solid) (subcutaneous) in B6D2F1 (BDF1) mice

[1] = dose: 15.0 mg/kg/injection, schedule: Q01DX011 (ip), vehicle: carboxymethylcellulose (CMC)
[2] = dose: 30.0 mg/kg/injection, schedule: Q01DX011 (ip), vehicle: carboxymethylcellulose (CMC)
[3] = dose: 60.0 mg/kg/injection, schedule: Q01DX011 (ip), vehicle: carboxymethylcellulose (CMC)
[4] = dose: 25.0 mg/kg/injection, schedule: Q01DX011 (ip), vehicle: saline

**Q.** For CC(=O)[C@H]1CC[C@H]2[C@@H]3CCC4=CC(=O)[C@H](C)C[C@]4(C)[C@@]3(F)[C@@H](O)C[C@]12C, which T/C (dose: 9.5 mg/kg/injection, schedule: Q01DX011 (sc), vehicle: steriod suspending solution) is on record?
**A.** 71 % of control

**Q.** And the T/C (dose: 19.0 mg/kg/injection, schedule: Q01DX011 (sc), vehicle: steriod suspending solution)?
**A.** 50 % of control

**Q.** And the T/C (dose: 75.0 mg/kg/injection, schedule: Q01DX011 (sc), vehicle: steriod suspending solution)?
**A.** 25 % of control and 42 % of control and 46 % of control

**Q.** And the T/C (dose: 150.0 mg/kg/injection, schedule: Q01DX011 (sc), vehicle: steriod suspending solution)?
**A.** 28 % of control

**Q.** What about the T/C (dose: 300.0 mg/kg/injection, schedule: Q01DX011 (sc), vehicle: steriod suspending solution) of the same compound?
**A.** 19 % of control

**Q.** For CS(=O)(=O)OCCCCCCCCCOS(C)(=O)=O, which T/C (dose: 18.75 mg/kg/injection, schedule: Q01DX011 (ip), vehicle: carboxymethylcellulose (CMC)) is on record?
**A.** 81 % of control

**Q.** What about the T/C (dose: 37.5 mg/kg/injection, schedule: Q01DX011 (ip), vehicle: carboxymethylcellulose (CMC)) of the same compound?
**A.** 51 % of control

**Q.** What about the T/C (dose: 75.0 mg/kg/injection, schedule: Q01DX011 (ip), vehicle: carboxymethylcellulose (CMC)) of the same compound?
**A.** 49 % of control

**Q.** With CC1CN1C(=O)c1cc(C(=O)N2CC2C)cc(C(=O)N2CC2C)c1 (stereo not drawn) as the compound, how does the T/C [1] read?
**A.** 70 % of control

**Q.** And the T/C [2]?
**A.** 151 % of control

**Q.** What about the T/C [3] of the same compound?
**A.** 47 % of control

**Q.** What does the source list for CC1CCC2(C(=O)O)CCC3(C)C(=CCC4C5(C)CCC(O)C(C)(C)C5CCC43C)C2C1C (stereo not drawn)?
**A.** T/C (dose: 50.0 mg/kg/injection, schedule: Q01DX011 (ip), vehicle: other): 76 % of control; T/C (dose: 100.0 mg/kg/injection, schedule: Q01DX011 (ip), vehicle: other): 69 % of control; T/C (dose: 200.0 mg/kg/injection, schedule: Q01DX011 (ip), vehicle: other): 115 % of control

**Q.** What does the source list for N[C@@H](Cc1ccc(N(CCCl)CCCl)cc1)C(=O)O?
**A.** T/C (dose: 1.25 mg/kg/injection, schedule: Q01DX011 (ip), vehicle: carboxymethylcellulose (CMC)): 84 % of control; T/C (dose: 2.5 mg/kg/injection, schedule: Q01DX011 (ip), vehicle: carboxymethylcellulose (CMC)): 50 % of control; T/C (dose: 3.75 mg/kg/injection, schedule: Q01DX011 (ip), vehicle: carboxymethylcellulose (CMC)): 53 % of control; T/C (dose: 4.0 mg/kg/injection, schedule: Q01DX011 (ip), vehicle: carboxymethylcellulose (CMC)): 35 % of control; T/C (dose: 5.0 mg/kg/injection, schedule: Q01DX011 (ip), vehicle: carboxymethylcellulose (CMC)): 35 % of control

**Q.** What does the source list for O=C1C(=O)C(Cl)=C(Cl)C(Cl)=C1Cl?
**A.** T/C [1]: 108 % of control; T/C [2]: 90 % of control; T/C [3]: 89 % of control

**Q.** O=c1[nH]cc(N(CCCl)CCCl)c(=O)[nH]1 was tested. Which T/C (dose: 0.21 mg/kg/injection, schedule: Q01DX011 (ip), vehicle: carboxymethylcellulose (CMC)) did it give?
**A.** 87 % of control

**Q.** And the T/C (dose: 0.42 mg/kg/injection, schedule: Q01DX011 (ip), vehicle: carboxymethylcellulose (CMC))?
**A.** 99 % of control

**Q.** What about the T/C (dose: 0.42 mg/kg/injection, schedule: Q01DX011 (ip), vehicle: saline) of the same compound?
**A.** 53 % of control

**Q.** What about the T/C (dose: 0.85 mg/kg/injection, schedule: Q01DX011 (ip), vehicle: carboxymethylcellulose (CMC)) of the same compound?
**A.** 36 % of control

**Q.** What about the T/C (dose: 0.85 mg/kg/injection, schedule: Q01DX011 (ip), vehicle: saline) of the same compound?
**A.** 47 % of control

**Q.** And the T/C (dose: 1.3 mg/kg/injection, schedule: Q01DX011 (ip), vehicle: saline)?
**A.** 20 % of control

**Q.** What about the T/C (dose: 1.7 mg/kg/injection, schedule: Q01DX011 (ip), vehicle: saline) of the same compound?
**A.** 13 % of control

**Q.** Which results are given for CCN(CC)CCN1C(=O)c2cccc3cccc(c23)C1=O?
**A.** T/C [4]: 106 % of control; T/C (dose: 50.0 mg/kg/injection, schedule: Q01DX011 (ip), vehicle: saline): 72 % of control; T/C (dose: 100.0 mg/kg/injection, schedule: Q01DX011 (ip), vehicle: saline): 85 % of control

**Q.** Which results are given for O=NN(CCCl)C(=O)NCCCl?
**A.** T/C (dose: 0.81 mg/kg/injection, schedule: Q01DX011 (ip), vehicle: saline): 112 % of control; T/C (dose: 1.62 mg/kg/injection, schedule: Q01DX011 (ip), vehicle: saline): 102 % of control; T/C (dose: 3.25 mg/kg/injection, schedule: Q01DX011 (ip), vehicle: saline): 54 % of control; T/C (dose: 6.5 mg/kg/injection, schedule: Q01DX011 (ip), vehicle: saline): 39 % of control; T/C (dose: 10.0 mg/kg/injection, schedule: Q01DX011 (ip), vehicle: saline): 88 % of control; T/C (dose: 15.0 mg/kg/injection, schedule: Q01DX011 (ip), vehicle: saline): 51 % of control; T/C [4]: 4 % of control

**Q.** Oc1ccc2ccccc2c1N=Nc1ccccc1 was tested. Which T/C (dose: 25.0 mg/kg/injection, schedule: Q01DX011 (ip), vehicle: carboxymethylcellulose (CMC)) did it give?
**A.** 90 % of control

**Q.** What about the T/C (dose: 50.0 mg/kg/injection, schedule: Q01DX011 (ip), vehicle: carboxymethylcellulose (CMC)) of the same compound?
**A.** 56 % of control

**Q.** What about the T/C (dose: 100.0 mg/kg/injection, schedule: Q01DX011 (ip), vehicle: carboxymethylcellulose (CMC)) of the same compound?
**A.** 41 % of control and 47 % of control

**Q.** And the T/C (dose: 200.0 mg/kg/injection, schedule: Q01DX011 (ip), vehicle: carboxymethylcellulose (CMC))?
**A.** 65 % of control and 47 % of control
